The text below walks through data of the NIST ThermoML archive (doi:10.1016/j.fluid.2005.04.021).

± gives the expanded uncertainty stated by the source.

This series can be described thus: activity coefficient (dimensionless); of the first substance listed, at infinite dilution; xn = mol fraction of the nth substance listed. The settings on record: Liquid, x1 = 0.

As for `CCCCCC` [hexane] + CCCCCCCCCCCCCC[P+](CCCCCC)(CCCCCC)CCCCCC.FC(F)(F)C(F)(F)[P-](F)(F)(F)(C(F)(F)C(F)(F)F)C(F)(F)C(F)(F)F, the activity coefficient came to 0.66 ± 0.06 (308.15 K), 0.64 ± 0.06 (318.15 K) and 0.62 ± 0.06 (328.15 K).
As for `CCO` [ethanol] + CCCCCCCCCCCCCC[P+](CCCCCC)(CCCCCC)CCCCCC.FC(F)(F)C(F)(F)[P-](F)(F)(F)(C(F)(F)C(F)(F)F)C(F)(F)C(F)(F)F, the activity coefficient (308.15 K) came out at 1.2 ± 0.09, the activity coefficient (318.15 K) is 1.07 ± 0.08 and the activity coefficient (328.15 K) is 0.93 ± 0.07.
In the same order, the values of `CCCO` [propan-1-ol] + CCCCCCCCCCCCCC[P+](CCCCCC)(CCCCCC)CCCCCC.FC(F)(F)C(F)(F)[P-](F)(F)(F)(C(F)(F)C(F)(F)F)C(F)(F)C(F)(F)F are 1.16 ± 0.09, 1 ± 0.07 and 0.87 ± 0.06.
Regarding `C1CCCC1` [cyclopentane] + CCCCCCCCCCCCCC[P+](CCCCCC)(CCCCCC)CCCCCC.FC(F)(F)C(F)(F)[P-](F)(F)(F)(C(F)(F)C(F)(F)F)C(F)(F)C(F)(F)F, the activity coefficient reads like this: (308.15 K) 0.42 ± 0.05; (318.15 K) 0.42 ± 0.05; (328.15 K) 0.41 ± 0.05.
Consider `CO` [methanol] + CCCCCCCCCCCCCC[P+](CCCCCC)(CCCCCC)CCCCCC.FC(F)(F)C(F)(F)[P-](F)(F)(F)(C(F)(F)C(F)(F)F)C(F)(F)C(F)(F)F, for which the activity coefficient runs as follows: (308.15 K) 1.23 ± 0.09; (318.15 K) 1.14 ± 0.08; (328.15 K) 1.01 ± 0.07.
For the compound `C=CCCCCC` [1-heptene] + CCCCCCCCCCCCCC[P+](CCCCCC)(CCCCCC)CCCCCC.FC(F)(F)C(F)(F)[P-](F)(F)(F)(C(F)(F)C(F)(F)F)C(F)(F)C(F)(F)F, the activity coefficient reads like this: (308.15 K) 0.59 ± 0.06; (318.15 K) 0.58 ± 0.06; (328.15 K) 0.57 ± 0.06.
The matching figures for `CCCCCCCC` [octane] + CCCCCCCCCCCCCC[P+](CCCCCC)(CCCCCC)CCCCCC.FC(F)(F)C(F)(F)[P-](F)(F)(F)(C(F)(F)C(F)(F)F)C(F)(F)C(F)(F)F: 0.84 ± 0.06, 0.8 ± 0.06 and 0.77 ± 0.06.
In the same order, the values of `C=CCCCCCC` [oct-1-ene] + CCCCCCCCCCCCCC[P+](CCCCCC)(CCCCCC)CCCCCC.FC(F)(F)C(F)(F)[P-](F)(F)(F)(C(F)(F)C(F)(F)F)C(F)(F)C(F)(F)F are 0.67 ± 0.06, 0.65 ± 0.06 and 0.64 ± 0.06.
As to `C#CCCCC` [1-hexyne] + CCCCCCCCCCCCCC[P+](CCCCCC)(CCCCCC)CCCCCC.FC(F)(F)C(F)(F)[P-](F)(F)(F)(C(F)(F)C(F)(F)F)C(F)(F)C(F)(F)F, the activity coefficient (308.15 K) was 0.42 ± 0.05, the activity coefficient (318.15 K) was determined as 0.42 ± 0.05 and the activity coefficient (328.15 K) came to 0.41 ± 0.05.
`c1ccccc1` [benzene] + CCCCCCCCCCCCCC[P+](CCCCCC)(CCCCCC)CCCCCC.FC(F)(F)C(F)(F)[P-](F)(F)(F)(C(F)(F)C(F)(F)F)C(F)(F)C(F)(F)F: the activity coefficient amounted to 0.2 ± 0.06 (308.15 K), 0.19 ± 0.06 (318.15 K) and 0.19 ± 0.06 (328.15 K).
For the compound `C=CCCCC` [hex-1-ene] + CCCCCCCCCCCCCC[P+](CCCCCC)(CCCCCC)CCCCCC.FC(F)(F)C(F)(F)[P-](F)(F)(F)(C(F)(F)C(F)(F)F)C(F)(F)C(F)(F)F, the activity coefficient runs as follows: (308.15 K) 0.53 ± 0.06; (318.15 K) 0.53 ± 0.06; (328.15 K) 0.52 ± 0.06.
As to `CCCCCCC` [heptane] + CCCCCCCCCCCCCC[P+](CCCCCC)(CCCCCC)CCCCCC.FC(F)(F)C(F)(F)[P-](F)(F)(F)(C(F)(F)C(F)(F)F)C(F)(F)C(F)(F)F, the activity coefficient was 0.74 ± 0.06 (308.15 K), 0.72 ± 0.06 (318.15 K) and 0.7 ± 0.06 (328.15 K).
Regarding `CCCCC` [pentane] + CCCCCCCCCCCCCC[P+](CCCCCC)(CCCCCC)CCCCCC.FC(F)(F)C(F)(F)[P-](F)(F)(F)(C(F)(F)C(F)(F)F)C(F)(F)C(F)(F)F, the activity coefficient is, setting by setting: (308.15 K) 0.61 ± 0.06; (318.15 K) 0.6 ± 0.06; (328.15 K) 0.59 ± 0.06.
With `C1CCCCC1` [cyclohexane] + CCCCCCCCCCCCCC[P+](CCCCCC)(CCCCCC)CCCCCC.FC(F)(F)C(F)(F)[P-](F)(F)(F)(C(F)(F)C(F)(F)F)C(F)(F)C(F)(F)F, the activity coefficient reads like this: (308.15 K) 0.49 ± 0.06; (318.15 K) 0.48 ± 0.05; (328.15 K) 0.44 ± 0.05.
In the same order, the values of `C#CCCCCC` [1-heptyne] + CCCCCCCCCCCCCC[P+](CCCCCC)(CCCCCC)CCCCCC.FC(F)(F)C(F)(F)[P-](F)(F)(F)(C(F)(F)C(F)(F)F)C(F)(F)C(F)(F)F are 0.46 ± 0.05, 0.46 ± 0.05 and 0.45 ± 0.05.
Turning to `C#CCCCCCC` [1-octyne] + CCCCCCCCCCCCCC[P+](CCCCCC)(CCCCCC)CCCCCC.FC(F)(F)C(F)(F)[P-](F)(F)(F)(C(F)(F)C(F)(F)F)C(F)(F)C(F)(F)F, the activity coefficient by setting is: (308.15 K) 0.57 ± 0.06; (318.15 K) 0.52 ± 0.06; (328.15 K) 0.51 ± 0.06.
The matching figures for `C1CCCCCC1` [cycloheptane] + CCCCCCCCCCCCCC[P+](CCCCCC)(CCCCCC)CCCCCC.FC(F)(F)C(F)(F)[P-](F)(F)(F)(C(F)(F)C(F)(F)F)C(F)(F)C(F)(F)F: 0.54 ± 0.06, 0.52 ± 0.06 and 0.49 ± 0.06.
